# Where two headings read alike, the source gives them in different places.
# What was measured:
# Listeria monocytogenes = details: 8% TSP, 10 minutes, room temperature, colony grown on a surface with biofilm; cited from earlier work
# Salmonella = Salmonella in chiller water, plant test at Springdale, Ark.
# E-Coli [1] = test: E-Coli testing at immersion chiller, plant test at Dallas, Tex.
# APC = APC on carcass after IOBW, Natchitoches, La.; details: standard nozzles, 13 seconds of wash time
# Coliform = Coliform on carcass after IOBW, Natchitoches, La.; details: standard nozzles, 13 seconds of wash time
# E-Coli [2] = test: E-Coli on carcass after IOBW, Natchitoches, La.; details: standard nozzles, 13 seconds of wash time
# Experimental: More tests are being conducted at a facility in Natchitoches, La. The project began by adding hypochlorous acid to the IOBW on-line. Tests were performed on the carcass before and after the IOBW. APC, Coliform and E-Coli test were run on the carcass. Average APC of the carcass entering the IOBW was 90,559 cfu/ml, Coliform of 2,103 cfu/ml and E-Coli of 1,429 cfu/ml. After adding hypochlorous acid to the existing IOBW, using standard nozzles, a major reduction in the numbers was found. The average APC was 12,792, Coliform 664 cfu/ml and E. coli 383 cfu/ml. This was only with 13 seconds of wash time.
# E-Coli [3] = test: E-Coli testing at chiller system, Natchitoches, La.
# pathogens = test: Initial one-control-point testing at the immersion chillers, chiller water samples
# Source text: In a preferred embodiment, a hypochlorous acid stream is used in more than one discrete location along a poultry processing line, although preliminary investigations for pathogens began as a one-control point approach in the process at the immersion chillers.
# Samples of chiller water determined that it was sterilized with hypochlorous acid. It appeared that the disinfecting capabilities were maximized at the chiller.
# [4] = cited from earlier work
# microorganisms = details: versus OCl-; cited from earlier work
# [5] = December, 121 samples so far, chiller plus pick/kill room system
# [6] = July, 254 samples, system on chiller
# [7] = November, 251 samples, chiller plus pick/kill room system
compound,measurement,setting,value
"O=P([O-])([O-])[O-].[Na+].[Na+].[Na+] [TSP, Trisodium phosphate]",reduction of bacterial numbers,Listeria monocytogenes,1 log10
"[Ca+2].[O-]Cl.[O-]Cl [calcium hypochlorite solution, calcium hypochlorite]",reduction in Salmonella,Salmonella,40%
same,samples returned with a positive result of Salmonella,"Salmonella; of 83 samples, four weeks, injected into chiller recirculation lines without pH control",16 samples
OCl [hypochlorous acid],samples returned positive (Salmonella),"Salmonella; of 41 samples over three weeks, 98% hypochlorous acid solution injected into chiller recirculation lines",2 samples
same,E-Coli detection rate,E-Coli [1]; April,14%
same,samples below 100 cfu/ml,E-Coli [1]; April,99%
same,samples with E-Coli detected,"E-Coli [1]; April, of 264 samples",37 samples
same,E-Coli detection rate,E-Coli [1]; March,28%
same,samples below 100 cfu/ml,E-Coli [1]; March,83%
same,samples with E-Coli detected,"E-Coli [1]; March, of 264 samples",76 samples
same,E-Coli detection rate,E-Coli [1]; May,8%
same,samples below 100 cfu/ml,E-Coli [1]; May,100%
same,samples with E-Coli detected,"E-Coli [1]; May, of 276 samples",23 samples
same,average APC,APC,"12,792 cfu/ml"
same,average Coliform,Coliform,664 cfu/ml
same,average E. coli,E-Coli [2],383 cfu/ml
same,samples over 10 cfu/ml,E-Coli [3]; [5],28%
same,samples over 100 cfu/ml (number),E-Coli [3]; [5],two
same,samples over 10 cfu/ml,E-Coli [3]; [6],38%
same,samples over 100 cfu/ml,E-Coli [3]; [6],5%
same,samples over 10 cfu/ml,E-Coli [3]; [7],20%
same,samples over 100 cfu/ml (number),E-Coli [3]; [7],one
same,state of chiller water samples,pathogens,sterilized
same,Percent HOCl,"[4]; pH 5.0, 0 °C",99.85%
same,Percent HOCl,"[4]; pH 5.0, 5 °C",99.83%
same,Percent HOCl,"[4]; pH 5.0, 10 °C",99.80%
same,Percent HOCl,"[4]; pH 5.0, 15 °C",99.77%
same,Percent HOCl,"[4]; pH 5.0, 20 °C",99.74%
same,Percent HOCl,"[4]; pH 5.0, 25 °C",99.71%
same,Percent HOCl,"[4]; pH 5.0, 30 °C",99.68%
same,Percent HOCl,"[4]; pH 5.5, 0 °C",99.53%
same,Percent HOCl,"[4]; pH 5.5, 5 °C",99.75%
same,Percent HOCl,"[4]; pH 5.5, 10 °C",99.36%
same,Percent HOCl,"[4]; pH 5.5, 15 °C",99.27%
same,Percent HOCl,"[4]; pH 5.5, 20 °C",99.18%
same,Percent HOCl,"[4]; pH 5.5, 25 °C",99.09%
same,Percent HOCl,"[4]; pH 5.5, 30 °C",99.01%
same,Percent HOCl,"[4]; pH 6.0, 0 °C",98.53%
same,Percent HOCl,"[4]; pH 6.0, 5 °C",98.28%
same,Percent HOCl,"[4]; pH 6.0, 10 °C",98.01%
same,Percent HOCl,"[4]; pH 6.0, 15 °C",97.73%
same,Percent HOCl,"[4]; pH 6.0, 20 °C",97.45%
same,Percent HOCl,"[4]; pH 6.0, 25 °C",97.18%
same,Percent HOCl,"[4]; pH 6.0, 30 °C",96.92%
same,Percent HOCl,"[4]; pH 7.0, 0 °C",87.05%
same,Percent HOCl,"[4]; pH 7.0, 5 °C",85.08%
same,Percent HOCl,"[4]; pH 7.0, 10 °C",83.11%
same,Percent HOCl,"[4]; pH 7.0, 15 °C",81.17%
same,Percent HOCl,"[4]; pH 7.0, 20 °C",79.23%
same,Percent HOCl,"[4]; pH 7.0, 25 °C",77.53%
same,Percent HOCl,"[4]; pH 7.0, 30 °C",75.90%
same,Percent HOCl,"[4]; pH 8.0, 0 °C",40.19%
same,Percent HOCl,"[4]; pH 8.0, 5 °C",36.32%
same,Percent HOCl,"[4]; pH 8.0, 10 °C",32.98%
same,Percent HOCl,"[4]; pH 8.0, 15 °C",30.12%
same,Percent HOCl,"[4]; pH 8.0, 20 °C",27.62%
same,Percent HOCl,"[4]; pH 8.0, 25 °C",25.65%
same,Percent HOCl,"[4]; pH 8.0, 30 °C",23.95%
same,Percent HOCl,"[4]; pH 9.0, 0 °C",6.30%
same,Percent HOCl,"[4]; pH 9.0, 5 °C",5.40%
same,Percent HOCl,"[4]; pH 9.0, 10 °C",4.69%
same,Percent HOCl,"[4]; pH 9.0, 15 °C",4.13%
same,Percent HOCl,"[4]; pH 9.0, 20 °C",3.68%
same,Percent HOCl,"[4]; pH 9.0, 25 °C",3.34%
same,Percent HOCl,"[4]; pH 9.0, 30 °C",3.05%
same,Percent HOCl,"[4]; pH 10.0, 0 °C",0.67%
same,Percent HOCl,"[4]; pH 10.0, 5 °C",0.57%
same,Percent HOCl,"[4]; pH 10.0, 10 °C",0.49%
same,Percent HOCl,"[4]; pH 10.0, 15 °C",0.43%
same,Percent HOCl,"[4]; pH 10.0, 20 °C",0.38%
same,Percent HOCl,"[4]; pH 10.0, 25 °C",0.34%
same,Percent HOCl,"[4]; pH 10.0, 30 °C",0.31%
same,Percent HOCl,"[4]; pH 11.0, 0 °C",0.067%
same,Percent HOCl,"[4]; pH 11.0, 5 °C",0.057%
same,Percent HOCl,"[4]; pH 11.0, 10 °C",0.049%
same,Percent HOCl,"[4]; pH 11.0, 15 °C",0.043%
same,Percent HOCl,"[4]; pH 11.0, 20 °C",0.038%
same,Percent HOCl,"[4]; pH 11.0, 25 °C",0.034%
same,Percent HOCl,"[4]; pH 11.0, 30 °C",0.031%
same,effectiveness for killing microorganisms relative to OCl-,microorganisms,about 80 times
